Patent US20250288584A1, “COMBINATIONS COMPRISING POSITIVE ALLOSTERIC MODULATORS OR ORTHOSTERIC AGONISTS OF METABOTROPIC GLUTAMATERGIC RECEPTOR SUBTYPE 2 AND THEIR USE” (JANSSEN PHARMACEUTICA NV, priority 2014, published 2025)
Values joined by “and” are separate entries in the source; they are usually repeats but may differ in a detail not shown here. Equal values may be shown once. “Also recorded” adds a separate entry of the source. Read-outs that look alike come from different tables or passages of the source.

Assays:
Type in all cases: in vivo, mice
[1] = Minimal motor impairment (rotarod)
[2] = test system: 6 Hz (32 mA) psychomotor seizures; assay: 6 Hz psychomotor seizure test, 32 mA (incl. TPE determination); settings: for ED50: Mus musculus, read-out: ED50 (95% CI) 32 mA
Outline: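 Mice dosed s.c. into a loose skin fold (one compound p.o.) at 0.01 mL/g body weight. Focal seizures induced by corneal stimulation (6 Hz, 0.2 msec rectangular pulse, 3 sec) at 32 mA; absence of stun, forelimb clonus, vibrissae twitching and Straub-tail scored as protection. TPE determined in this assay; ED50 from evenly spaced doses.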

[3] = test system: 6 Hz (44 mA) psychomotor seizures; assay: 6 Hz psychomotor seizure test, 44 mA (alone, combination with LEV, isobolographic study)
Outline: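 Mice dosed s.c. or p.o. at 0.01 mL/g, alone or with LEV at fixed dose ratios proportional to ED50 values. Focal seizures induced by corneal stimulation (6 Hz, 0.2 msec pulse, 3 sec, 44 mA); animals without stun, forelimb clonus, vibrissae twitch or Straub-tail were counted as protected. ED50 values derived, with combinations analysed isobolographically.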

In the case of `C[C@H](Oc1ccc(F)cc1F)c1ccn2c(CC3CC3)nnc2c1C(F)(F)F` [Co. No. 6-b, 3-(Cyclopropylmethyl)-7-[(1S)-1-(2,4-difluorophenoxy)ethyl]-8-(trifluoromethyl)[1,2,4]triazolo[4,3-a]pyridine], the “# rotarod motor impairment/# tested” value ([1]; 2.5 mg/kg p.o., 0.5 h, 32 mA group) was 0/8, the “# rotarod motor impairment/# tested” value ([1]; 5 mg/kg p.o., 0.5 h, 32 mA group) was 0/8 and the “# rotarod motor impairment/# tested” value ([1]; 10 mg/kg p.o., 0.25 h, 32 mA group) was 0/4. The “# rotarod motor impairment/# tested” value ([1]; 10 mg/kg p.o., 0.5 h, 32 mA group) was 0/4 and 0/8, the “# rotarod motor impairment/# tested” value ([1]; 10 mg/kg p.o., 0.5 h, 44 mA group) was 0/8 and the “# rotarod motor impairment/# tested” value ([1]; 10 mg/kg p.o., 1 h, 32 mA group) was 0/4. For the same compound, the “# rotarod motor impairment/# tested” value ([1]; 10 mg/kg p.o., 2 h, 32 mA group) was 0/4, the “# rotarod motor impairment/# tested” value ([1]; 10 mg/kg p.o., 4 h, 32 mA group) was 0/4 and the “# rotarod motor impairment/# tested” value ([1]; 15 mg/kg p.o., 0.5 h, 44 mA group) was 0/8. The “# rotarod motor impairment/# tested” value ([1]; 20 mg/kg p.o., 0.25 h, 32 mA group) was 0/4, the “# rotarod motor impairment/# tested” value ([1]; 20 mg/kg p.o., 0.5 h, 32 mA group) was 0/4 and 0/8 and the “# rotarod motor impairment/# tested” value ([1]; 20 mg/kg p.o., 0.5 h, 44 mA group) was 0/8. For the same compound, the “# rotarod motor impairment/# tested” value ([1]; 20 mg/kg p.o., 1 h, 32 mA group) was 0/4, the “# rotarod motor impairment/# tested” value ([1]; 20 mg/kg p.o., 2 h, 32 mA group) was 0/4 and the “# rotarod motor impairment/# tested” value ([1]; 20 mg/kg p.o., 4 h, 32 mA group) was 0/4. For the same compound, the “# rotarod motor impairment/# tested” value ([1]; 40 mg/kg p.o., 0.5 h, 44 mA group) was 0/8, the “# protected/# tested” value ([2]; 2.5 mg/kg p.o., 0.5 h) was 1/8 and the “# protected/# tested” value ([2]; 5 mg/kg p.o., 0.5 h) was 2/8. For the same compound, the “# protected/# tested” value ([2]; 10 mg/kg p.o., 0.25 h) was 1/4, the “# protected/# tested” value ([2]; 10 mg/kg p.o., 0.5 h) was 3/4 and 6/8 and the “# protected/# tested” value ([2]; 10 mg/kg p.o., 1 h) was 0/4. For the same compound, the “# protected/# tested” value ([2]; 10 mg/kg p.o., 2 h) was 1/4, the “# protected/# tested” value ([2]; 10 mg/kg p.o., 4 h) was 0/4 and the “# protected/# tested” value ([2]; 20 mg/kg p.o., 0.25 h) was 4/4. For the same compound, the “# protected/# tested” value ([2]; 20 mg/kg p.o., 0.5 h) was 3/4 and 7/8, the “# protected/# tested” value ([2]; 20 mg/kg p.o., 1 h) was 4/4 and the “# protected/# tested” value ([2]; 20 mg/kg p.o., 2 h) was 0/4. For the same compound, the “# protected/# tested” value ([2]; 20 mg/kg p.o., 4 h) was 1/4, the ED50 ([2]; po, 0.5 h, p.o., 0.5 h TPE) was 7.2 mg/kg and the “ED50 (95% CI) 32 mA” value ([2]; p.o., 0.5 h TPE) was “ED50 (95% CI): 7.2 mg/kg (4.2 to 11.8)”. For the same compound, the “activity when administered alone” value ([3]; 10 mg/kg p.o.) was “did not protect; also recorded: Co. No. 6-b 10 mg/kg, not active when administered alone”, the responders at 10 mg/kg ([3]; Mus musculus, po, 0.5 h, 10 mg/kg p.o., 0.5 h, read-out: # protected/# tested (converted)) was 0% and the responders at 15 mg/kg ([3]; Mus musculus, po, 0.5 h, 15 mg/kg p.o., 0.5 h, read-out: # protected/# tested (converted)) was 50%. For the same compound, the responders at 20 mg/kg ([3]; Mus musculus, po, 0.5 h, 20 mg/kg p.o., 0.5 h, read-out: # protected/# tested (converted)) was 75%, the responders at 40 mg/kg ([3]; Mus musculus, po, 0.5 h, 40 mg/kg p.o., 0.5 h, read-out: # protected/# tested (converted)) was 100% and the ED50 ([3]; Mus musculus, po, 0.5 h, p.o., 0.5 h TPE, read-out: ED50 (95% CI) 44 mA) was 16.1 mg/kg. The “ED50 (95% CI) 44 mA” value ([3]; p.o., 0.5 h TPE) was 16.1 (13.0-20.1) mg/kg.

With `CC[C@@H](C(N)=O)N1CCCC1=O` [LEV, (S)-2-(2-oxopyrrolidin-1-yl) butanamide, reference compound] the “# motortox/# tested” value ([1]; LEV alone 10 mg/kg i.p., 1 h, 44 mA group) was 0/6 and 0/8, the “# rotarod motor impairment/# tested” value ([1]; LEV alone 200 mg/kg) was 0/8 and the “# rotarod motor impairment/# tested” value ([1]; LEV alone 200 mg/kg i.p., 44 mA group) was 0/8. For the same compound, the “# rotarod motor impairment/# tested” value ([1]; LEV alone 350 mg/kg i.p., 44 mA group) was 0/8, the “# rotarod motor impairment/# tested” value ([1]; LEV alone 400 mg/kg) was 0/9 and the “# rotarod motor impairment/# tested” value ([1]; LEV alone 400 mg/kg i.p., 44 mA group) was 0/9. For the same compound, the “# rotarod motor impairment/# tested” value ([1]; LEV alone 800 mg/kg) was 0/12, the “# rotarod motor impairment/# tested” value ([1]; LEV alone 800 mg/kg i.p., 44 mA group) was 0/12 and the “# protected/# tested” value ([3]; LEV (low-dose) control group 25 mg/kg) was 1/8. The “# protected/# tested” value ([3]; LEV alone 10 mg/kg i.p., 1 h) was “⅙”, the responders at 200 mg/kg ([3]; Mus musculus, 6 Hz (44 mA), LEV alone 200 mg/kg, read-out: # protected/# tested (converted)) was 25% and the responders at 400 mg/kg ([3]; Mus musculus, 6 Hz (44 mA), LEV alone 400 mg/kg, read-out: # protected/# tested (converted)) was 44.4%. The responders at 800 mg/kg ([3]; Mus musculus, 6 Hz (44 mA), LEV alone 800 mg/kg, read-out: # protected/# tested (converted)) was 83.3%, the ED50 ([3]; Mus musculus, ip, 1 h, 6 Hz (44 mA), LEV alone, i.p., 1 h TPE, read-out: LEV ED50 (95% CI)) was 345 mg/kg and the responders at 10 mg/kg ([3]; Mus musculus, ip, 1 h, LEV alone 10 mg/kg i.p., 1 h, read-out: # protected/# tested (converted)) was 16.7%. The ED50 ([3]; Mus musculus, ip, 1 h, i.p., 1 h TPE, read-out: ED50 (95% CI) 44 mA, LEV alone) was roughly 345 mg/kg, the responders at 200 mg/kg ([3]; Mus musculus, ip, LEV alone 200 mg/kg i.p., read-out: # protected/# tested (converted)) was 25% and the responders at 350 mg/kg ([3]; Mus musculus, ip, LEV alone 350 mg/kg i.p., read-out: # protected/# tested (converted)) was 37.5%. The responders at 400 mg/kg ([3]; Mus musculus, ip, LEV alone 400 mg/kg i.p., read-out: # protected/# tested (converted)) was 44.4%, the responders at 800 mg/kg ([3]; Mus musculus, ip, LEV alone 800 mg/kg i.p., read-out: # protected/# tested (converted)) was 83.3% and the “Maximum Effect (% Protection)” value ([3]; compound alone) was 75%.

In the case of `Fc1ccc(N2CCN(Cc3ccn4c(CC5CC5)nnc4c3C(F)(F)F)CC2)c(F)c1` [Co. No. 1], the “# rotarod motor impairment/# tested” value ([1]; 0.5 mg/kg s.c., 0.5 h, 32 mA group) was 0/8, the “# rotarod motor impairment/# tested” value ([1]; 2.5 mg/kg s.c., 0.25 h, 32 mA group) was 0/0 and the “# rotarod motor impairment/# tested” value ([1]; 2.5 mg/kg s.c., 0.5 h, 32 mA group) was 0/0 and 0/16. The “# rotarod motor impairment/# tested” value ([1]; 2.5 mg/kg s.c., 0.5 h, 44 mA group) was 0/8, the “# rotarod motor impairment/# tested” value ([1]; 5 mg/kg s.c., 0.25 h, 32 mA group) was 0/0 and the “# rotarod motor impairment/# tested” value ([1]; 5 mg/kg s.c., 0.5 h, 32 mA group) was 0/0 and 0/12. For the same compound, the “# rotarod motor impairment/# tested” value ([1]; 10 mg/kg s.c., 0.25 h, 32 mA group) was 0/0, the “# rotarod motor impairment/# tested” value ([1]; 10 mg/kg s.c., 0.5 h, 32 mA group) was 0/0 and 0/8 and the “# rotarod motor impairment/# tested” value ([1]; 10 mg/kg s.c., 0.5 h, 44 mA group) was 0/8. For the same compound, the “# rotarod motor impairment/# tested” value ([1]; 10 mg/kg s.c., 1 h, 32 mA group) was 0/0, the “# rotarod motor impairment/# tested” value ([1]; 10 mg/kg s.c., 2 h, 32 mA group) was 0/0 and the “# rotarod motor impairment/# tested” value ([1]; 10 mg/kg s.c., 4 h, 32 mA group) was 0/0. The “# rotarod motor impairment/# tested” value ([1]; 15 mg/kg s.c., 0.5 h, 44 mA group) was 0/8, the “# rotarod motor impairment/# tested” value ([1]; 20 mg/kg s.c., 0.5 h, 32 mA group) was 1/8 and the “# rotarod motor impairment/# tested” value ([1]; 20 mg/kg s.c., 0.5 h, 44 mA group) was 1/8. For the same compound, the “# protected/# tested” value ([2]; 0.5 mg/kg s.c., 0.5 h) was 1/8, the “# protected/# tested” value ([2]; 2.5 mg/kg s.c., 0.25 h) was 1/8 and the “# protected/# tested” value ([2]; 2.5 mg/kg s.c., 0.5 h) was 5/8 and 7/16. For the same compound, the “# protected/# tested” value ([2]; 5 mg/kg s.c., 0.25 h) was 8/12, the “# protected/# tested” value ([2]; 5 mg/kg s.c., 0.5 h) was 8/12 and the “# protected/# tested” value ([2]; 10 mg/kg s.c., 0.25 h) was 4/4. The “# protected/# tested” value ([2]; 10 mg/kg s.c., 0.5 h) was 4/4 and 7/8, the “# protected/# tested” value ([2]; 10 mg/kg s.c., 1 h) was 3/4 and the “# protected/# tested” value ([2]; 10 mg/kg s.c., 2 h) was 0/4. The “# protected/# tested” value ([2]; 10 mg/kg s.c., 4 h) was 0/4, the “# protected/# tested” value ([2]; 20 mg/kg s.c., 0.5 h) was 8/8 and the ED50 ([2]; sc, at TPE) was 2.8 mg/kg. For the same compound, the “ED50 (95% CI) 32 mA” value ([2]; s.c., at TPE) was “ED50 (95% CI): 2.8 mg/kg (1.3 to 4.3)”, the responders at 2.5 mg/kg ([3]; Mus musculus, sc, 0.5 h, 2.5 mg/kg s.c., 0.5 h, read-out: # protected/# tested) was 0% and the responders at 10 mg/kg ([3]; Mus musculus, sc, 0.5 h, 10 mg/kg s.c., 0.5 h, read-out: # protected/# tested (converted)) was 50%. It also gave a responders at 15 mg/kg ([3]; Mus musculus, sc, 0.5 h, 15 mg/kg s.c., 0.5 h, read-out: # protected/# tested (converted)) of 87.5%, a responders at 20 mg/kg ([3]; Mus musculus, sc, 0.5 h, 20 mg/kg s.c., 0.5 h, read-out: # protected/# tested (converted)) of 100% and an ED50 ([3]; Mus musculus, sc, at TPE, compound alone, read-out: ED50 (95% CI) 44 mA) of 10.2 mg/kg. For the same compound, the “ED50 (95% CI) 44 mA” value ([3]; s.c., at TPE, compound alone) was 10.2 (3.1-12.4) mg/kg.
